Data from publication PMC11532403 (Signal Transduction and Targeted Therapy, 2024).
Several values for one entry are separate records, joined by “and”; a condition that tells them apart may be missing. Equal values may be shown once.

Test system: RET-altered solid tumors
Test: Phase 1 trial: anti-tumor efficacy (RECIST 1.1)
Type: in vivo, human
Details: for PFS Follow-up (m) / PFS: Type of event: individual patients; for Best overall response: Partial response / Best overall response: Progressive disease / Best overall response: Stable disease / DCR, % (95% CI) / Median DoR, months (95% CI) / Median PFS, months (95% CI) / Median TTR, months (95% CI) / ORR, % (95% CI): patients with detectable RET variations
Description: Radiologic tumor assessments were conducted by computed tomography (CT) or magnetic resonance imaging (MRI) of brain, chest, abdomen, and pelvis at baseline, 4 weeks for the first tumor assessment, then every 8 weeks (± 7 days) for 1 year, and every 12 weeks (± 7 days) thereafter. MTC patients were longitudinally monitored for serum calcitonin and carcinoembryonic antigen (CEA) levels.

[1] = RP2D, PTC, treatment-naïve (n = 1)
[2] = Treatment-naïve, 40 mg BID (n = 1)
[3] = Treatment-naïve, 160 mg BID (n = 37)
[4] = Treatment-naïve, 200 mg BID (n = 2)
[5] = Treatment-naïve, all doses (n = 40)
[6] = baseline ctDNA detectable RET alterations (n = 61)
[7] = baseline ctDNA undetectable RET alterations (n = 53)
[8] = ctDNA analysis, all patients (n = 114)

With `COc1ccc(CN2C3CC2CN(c2ccc(-c4cc(N5CC(C)(O)C5)cn5ncc(C#N)c45)cn2)C3)cn1` [SY-5007, 6-(3-hydroxy-3-methylazetidin-1-yl)-4-(6-(6-((6-methoxypyridin-3-yl)methyl)-3,6-diazabicyclo[3.1.1]heptan-3-yl)pyridin-3-yl)pyrazolo[1,5-a]pyridine-3-carbonitrile] the “ORR (95% CI)” value [1] was 0 (0.0-97.5) %, the Partial response [1] was 0 (0.0) n (%) and the Progressive disease [1] was 0 (0.0) n (%). For the same compound, the Stable disease [1] was 1 (100.0) n (%), the “Median PFS (95% CI)” value [2] was 1.67 (NE-NE) months and the “ORR (95% CI)” value [2] was 0 (0.0–97.5) %. For the same compound, the Partial response [2] was 0 (0.0) n (%), the Progressive disease [2] was 0 (0.0) n (%) and the Stable disease [2] was 1 (100.0) n (%). For the same compound, the “DCR (95% CI)” value (Treatment-naïve, 40 mg BID (n = 1), 40 mg twice daily) was 100.0 (2.5–100.0) %, the “DCR (95% CI)” value [3] was 94.6 (81.8–99.3) % and the “Median DoR (95% CI)” value [3] was 14.5 (9.26-NE) months. For the same compound, the “Median PFS (95% CI)” value [3] was 15.5 (9.23-NE) months, the “Median TTR (95% CI)” value [3] was 2.75 (0.98–2.89) months and the “ORR (95% CI)” value [3] was 70.3 (53.0–84.1) %. The Partial response [3] was 26 (70.3) n (%), the Progressive disease [3] was 2 (5.4) n (%) and the Stable disease [3] was 9 (24.3) n (%). The “DCR (95% CI)” value [4] was 100.0 (15.8–100.0) %, the “Median DoR (95% CI)” value [4] was 5.32 (5.06-NE) months and the “Median PFS (95% CI)” value [4] was 6.22 (5.98-NE) months. For the same compound, the “Median TTR (95% CI)” value [4] was 0.93 (0.91-NE) months, the “ORR (95% CI)” value [4] was 100.0 (15.8–100.0) % and the Partial response [4] was 2 (100.0) n (%). The Progressive disease [4] was 0 (0.0) n (%), the Stable disease [4] was 0 (0.0) n (%) and the “DCR (95% CI)” value [5] was 95.0 (83.1–99.4) %. The “Median DoR (95% CI)” value [5] was 14.5 (6.47–NE) months, the “Median PFS (95% CI)” value [5] was 15.5 (9.23–NE) months and the “Median TTR (95% CI)” value [5] was 2.75 (0.95–2.89) months. For the same compound, the “ORR (95% CI)” value [5] was 70.0 (53.5–83.4) %, the Partial response [5] was 28 (70.0) n (%) and the Progressive disease [5] was 2 (5.0) n (%). For the same compound, the Stable disease [5] was 10 (25.0) n (%), the “Estimated 6-month PFS rate” value (all patients) was 86.1% and the “Estimated 12-month PFS rate” value (all patients) was 68.9%. The “Patients with progression events or death” value (all patients in phase 1) was 29 (23.8%) n (%), the “DCR (95% CI)” value [6] was 96.7 (88.7-99.6) % and the “Median DoR (95% CI)” value [6] was 13.0 (9.23-19.9) months. For the same compound, the “Median PFS (95% CI)” value [6] was 13.8 (10.0-15.5) months, the “Median TTR (95% CI)” value [6] was 2.79 (1.01-6.73) months and the “ORR (95% CI)” value [6] was 57.4 (44.1-70.0) %. For the same compound, the Partial response [6] was 35 (57.4) n (%), the Progressive disease [6] was 2 (3.3) n (%) and the Stable disease [6] was 24 (39.3) n (%). The “DCR (95% CI)” value [7] was 94.3 (84.3-98.8) %, the “Median TTR (95% CI)” value [7] was 3.15 (2.75-6.30) months and the “ORR (95% CI)” value [7] was 60.4 (46.0-73.5) %. The Partial response [7] was 32 (60.4) n (%), the Progressive disease [7] was 3 (5.7) n (%) and the Stable disease [7] was 18 (34.0) n (%). For the same compound, the “DCR (95% CI)” value [8] was 95.6 (90.1-98.6) %, the “Median DoR (95% CI)” value [8] was 19.9 (12.8-NE) months and the “Median PFS (95% CI)” value [8] was 21.1 (13.8-NE) months. The “Median TTR (95% CI)” value [8] was 2.79 (2.75-4.66) months, the “ORR (95% CI)” value [8] was 58.8 (49.2-67.9) % and the Partial response [8] was 67 (58.8) n (%). For the same compound, the Progressive disease [8] was 5 (4.4) n (%), the Stable disease [8] was 42 (36.8) n (%) and the ORR (ctDNA-detectable KIF5B-RET (27/46)) was 58.7%. For the same compound, the ORR (ctDNA-detectable RET mutations (3/9)) was 33.3%, the ORR (ctDNA-detectable other RET fusions (5/7)) was 71.4% and the “Median PFS” value (detectable RET, concomitant TP53 mutation) was 10.1 months. For the same compound, the ORR (detectable RET, concomitant TP53 mutation (11/22)) was 50.0%, the “Median PFS” value (detectable RET, without TP53 mutation) was 15.4 months and the ORR (detectable RET, without TP53 mutation (24/39)) was 61.5%. It also gave an ORR (dose-escalation phase (9/17)) of 52.9%, a DCR (dose-escalation phase (16/17)) of 94.1% and an ORR (dose-expansion phase (58/99)) of 58.6%. For the same compound, the DCR (dose-expansion phase (95/99)) was 96.0%, the “1-year DoR rate” value (in vivo) was 74.1% and the “PFS Follow-up (m)” value (GC, 160mg BID) was 1.02 m. The “PFS: Type of event” value (GC, 160mg BID) was “Censoring”, the “PFS Follow-up (m)” value (MTC, 160mg BID) was 5.75 m and 0.99 m and 2.76 m and 2.66 m and 6.41 m and 4.60 m and 0.85 m and 0.92 m and 14.72 m and 6.44 m and 11.96 m and 6.51 m and 13.90 m and 8.41 m and 4.57 m and 8.51 m and 6.60 m and 2.86 m and 8.38 m and the “PFS: Type of event” value (MTC, 160mg BID) was “Censoring”. The “PFS Follow-up (m)” value (NSCLC, 20mg BID) was 27.14 m, the “PFS Follow-up (m)” value (NSCLC, 20mg QD) was 4.83 m and the “PFS: Type of event” value (NSCLC, 20mg QD) was “Censoring”. The “PFS Follow-up (m)” value (NSCLC, 40mg BID) was 25.07 m and 10.29 m and 1.68 m, the “PFS: Type of event” value (NSCLC, 40mg BID) was “Censoring” and the “PFS Follow-up (m)” value (NSCLC, 80mg BID) was 23.30 m and 6.64 m and 23.23 m. For the same compound, the “PFS: Type of event” value (NSCLC, 80mg BID) was “Censoring”, the “PFS Follow-up (m)” value (NSCLC, 120mg BID) was 21.39 m and 21.42 m and 21.13 m and the “PFS: Type of event” value (NSCLC, 120mg BID) was “Censoring”. The “PFS Follow-up (m)” value (NSCLC, 200mg BID) was 11.99 m and 11.96 m and 5.98 m and 5.75 m and 17.74 m and 3.15 m and 6.47 m and 12.16 m and 0.89 m, the “PFS: Type of event” value (NSCLC, 200mg BID) was “Censoring” and the “PFS Follow-up (m)” value (PTC, 160mg BID) was 8.35 m and 2.79 m and 8.38 m and 8.48 m and 6.67 m and 2.89 m and 2.92 m. The ORR (non-clearance or unknown RET alterations at Cycle 1 Day 28 (16/42)) was 38.1%, the “Best overall response: Partial response” value (TP53 mutant, n=22) was 11 (50.0) and the “Best overall response: Progressive disease” value (TP53 mutant, n=22) was 0 (0.0). For the same compound, the “Best overall response: Stable disease” value (TP53 mutant, n=22) was 11 (50.0), the “DCR, % (95% CI)” value (TP53 mutant, n=22) was 100.0 (84.6-100.0) % and the “Median DoR, months (95% CI)” value (TP53 mutant, n=22) was 13.0 (2.82-NE) months. For the same compound, the “Median PFS, months (95% CI)” value (TP53 mutant, n=22) was 10.1 (6.21-NE) months, the “Median TTR, months (95% CI)” value (TP53 mutant, n=22) was 2.89 (0.95-NE) months and the “ORR, % (95% CI)” value (TP53 mutant, n=22) was 50.0 (28.2-71.8) %. For the same compound, the “Best overall response: Partial response” value (TP53 wild-type, n=39) was 24 (61.5), the “Best overall response: Progressive disease” value (TP53 wild-type, n=39) was 2 (5.1) and the “Best overall response: Stable disease” value (TP53 wild-type, n=39) was 13 (33.3). The “DCR, % (95% CI)” value (TP53 wild-type, n=39) was 94.9 (82.7-99.4) %, the “Median DoR, months (95% CI)” value (TP53 wild-type, n=39) was 19.9 (6.47-NE) months and the “Median PFS, months (95% CI)” value (TP53 wild-type, n=39) was 15.4 (9.23-NE) months. The “Median TTR, months (95% CI)” value (TP53 wild-type, n=39) was 2.79 (0.98-6.73) months, the “ORR, % (95% CI)” value (TP53 wild-type, n=39) was 61.5 (44.6-76.6) % and the “Best overall response: Partial response” value (all patients, n=61) was 35 (57.4). For the same compound, the “Best overall response: Progressive disease” value (all patients, n=61) was 2 (3.3), the “Best overall response: Stable disease” value (all patients, n=61) was 24 (39.3) and the “DCR, % (95% CI)” value (all patients, n=61) was 96.7 (88.7-99.6) %. The “Median DoR, months (95% CI)” value (all patients, n=61) was 13.0 (9.23-19.9) months, the “Median PFS, months (95% CI)” value (all patients, n=61) was 13.8 (10.0-15.5) months and the “Median TTR, months (95% CI)” value (all patients, n=61) was 2.79 (1.01-6.73) months. For the same compound, the “ORR, % (95% CI)” value (all patients, n=61) was 57.4 (44.1-70.0) %, the ORR (patients with rapid ctDNA clearance of RET alteration) was 100% and the “Median TTR” value (patients with rapid ctDNA decline/clearance of RET alteration) was 0.91 months.
